{"source": "patent US20250019657A1", "about": "“Generation of Adipocytes from Bovine Embryonic Stem Cell Lines” (Wisconsin Alumni Research Foundation, priority 2023, published 2025)", "molecules": {"B1": {"name": "vitronectin + Cover Glass on the top: vitronectin coating with cover glass on top (protein, UniProt P04004 20-478, looked up)", "Vitronectin": "DQESCKGRCTEGFNVDKKCQCDELCSYYQSCCTDYTAECKPQVTRGDVFTMPEDEYTVYDDGEEKNNATVHEQVGGPSLTSDLQAQSKGNPEQTPVLKPEEEAPAPEVGASKPEGIDSRPETLHPGRPQPPAEEELCSGKPFDAFTDLKNGSLFAFRGQYCYELDEKAVRPGYPKLIRDVWGIEGPIDAAFTRINCQGKTYLFKGSQYWRFEDGVLDPDYPRNISDGFDGIPDNVDAALALPAHSYSGRERVYFFKGKQYWEYQFQHQPSQEECEGSSLSAVFEHFAMMQRDSWEDIFELLFWGRTSAGTRQPQFISRDWHGVPGQVDAAMAGRIYISGMAPRPSLAKKQRFRHRNRKGYRSQRGHSRGRNQNSRRPSRATWLSLFSSEESNLGANNYDDYRMDWLVPATCEPIQSVFFFSGDKYYRVNLRTRRVDTVDPPYPRSIAQYWLGCPAPGHL"}}, "key": {"bESCs [1]": {"test_system": "bESCs", "experiment": "bESC growth in Medium 1 with alternative Wnt inhibitors (Medium 1a/1b) on vitronectin, feeder-free", "type": "cell-based, bovine", "protocol": "1) Wnt-inhibitors (Medium la and Medium 1b): In prior studies, mTeSR Plus medium supplemented with 20 ng/ml human FGF2 and 2.5 μM IWR1 was used for bESC cultures (Saito et al. 1992; Stice et al. 1996). […] Nat Chem Biol 11, 973-980 (2015); and Mallinger et al., Discovery of potent, orally bioavailable, small-molecule inhibitors of WNT signaling from a cell-based pathway screen.\nbESC growth in Medium 1 was tested with concentrations of 1 nM, 5 nM, or 10 nM iCRT3 (Medium 1a).\nIn another set of experiments, bESC growth in Medium 1 was tested with concentrations of 1 nM, 5 nM, 75 nM, or 150 nM CCT251545 (Medium 1b).\nIn Method 1, bESC colonies growing on Vitronectin were passaged by using TrypLe. Following medium aspiration 0.5-0.8 mL of TrypLE was added to each well of 6 well plate. Cells incubated for 3.5 min at 37.2° C. Then TrypLE has been carefully removed by aspiration and 1-1.2 mL of cold (+1-+4° C.) TeSRr medium was added, cells were suspended by pipette filtered via strainer (70 mkM), counted and an aliquot of 70,000 to 100,000 cell/well for 6 wells plate was taken and cells centrifuged at 100 g for 5 minutes. The cell pellet was resuspended in 9 mL growth medium and seeded on coated by vitronectin 6-well plate."}, "bESCs [2]": {"test_system": "bESCs", "experiment": "bESC growth in mTeSR medium with DAPT and IWR-1 (Medium 3 / Method 3)", "type": "cell-based, bovine", "protocol": "To test whether DAPT can be used for bESC cultures, the growth of bESC was tested in mTeSR medium with different concentrations of DAPT and IWR-1. […] Addition of IWR-1 to DAPT had no effect on bESCs. (FIG. 3, Table 6; bESC Medium 3/Method 3). mTeSR with 10 μM DAPT alone supported bESC cultures for more than 7 passages.\nIn Method 3, bESC were cultured in bESC medium 3 composed of TeSR Plus (WiCell) supplemented with […] of gamma γ-secretase inhibitor DAPT on collagen or a vitronectin-coated 6-well plate and were passage using PBS-EDTA. Following aspiration of bESC growth media, 0.7-1.2 mL of PBS-EDTA solution was added to each well of 6 well plate. After incubation 5 to 6 min at +37° C., PBS-EDTA was carefully removed by aspiration and 1-1.2 mL of cold (+1-+4° C.) TeSR medium was added, cells were suspended by pipette filtered via strainer (70 mkM), counted and an aliquot of 100,000 to 150,000 cell/well for 6 wells plate was taken and cells were centrifuged at 100 g for 5 minutes. Cell pellets were resuspended in 9 mL growth medium and plated on a collagen or vitronectin coated 6-well plate. Cells grew for 5-7 days until they formed large colonies. PBS-EDTA solution was prepared as described above."}, "bESCs [3]": {"test_system": "bESCs", "experiment": "Matrix coating supporting expansion of bESCs in feeder-free conditions", "type": "cell-based, bovine", "conditions": "for bESC growth on pre-coated plate (FIG. 2): Method 1 bESCs, medium with 2.5 μM IWR-1 (bESC medium 1)", "from_the_text": "After co-culture with MEFs, bESCs were collected using TrypLE treatment and cultured in 6-well plastic plates in feeder-free conditions for expansion. […] However, collagen pre-coated plates can be used to support bESC growth in bESC medium 2.\nTo establish feeder-free conditions for bESCs, bESCs were collected from coculture with MEFs using TrypLE treatment and transferred into 6-well plastic plates precoated Vitronectin XF, collagen, or Matrigel®.\nVitronectin Coating Preparation: A frozen vial of Vitronectin XF (2 mL) from Stem Cell Technology (Cat #07180) was thawed and mixed with 50 mL of DPBS and distributed into 6 of 6-well plates (˜1.4 mL/well) sealed with Parafilm and kept wrapped in foil at +4° C. for not more than 2 weeks. Before use, the plate was kept at +37° C. for at least 1 hr. Immediately after aspiration excess of liquid, bESCs in culture medium were added.\nCollagen Coating Preparation: Collagen (Sigma, Cat #5162-1G) was dissolved in distilled water and sterilized by filtration using 0.22 um filter. Collagen solution aliquoted into 70 μL PCR tubes and kept at −80° C. before use. For coating wells, the content of tube was transferred into 50 mL DPBS, carefully mixed, and distributed into 6 of 6 wells plate, approximately 1.3-1.4 mL/well. Plates sealed with Parafilm and kept at RT not more than 2 wecks.\nMatrigel® Coating Preparation: Frozen stock (˜0.5 mL) of Matrigel® needs was thaw on ice and diluted in 50 mL of cold DPBS (+4° C.). Approximately 1.2-1.3 mL (9 μg/cm^2) of diluted Matrigel® solution was added to each well. After 1 hour incubation at +37° C. excess Matrigel® was removed and wells washed with warm DPBS."}, "[4]": {"test_system": "bovine embryo derived blastocysts", "experiment": "Generation of bESC lines from blastocysts on different coatings", "type": "cell-based", "conditions": "Method 1", "protocol": "bESCs were generated from IVM/IVF bovine embryo derived blastocysts on 6th to 7th days post-fertilization. Briefly, bovine embryos were obtained from an outside source and cultured in TeSR Plus medium supplemented with 15% fetal bovine serum from 24 to 72 hours to get an expanded blastocyst stage. After that zona pellucida was removed by treating embryos with pronase. Embryos with stripped zona pellucida were plated on irradiated MEFs (obtained from WICell) in a 4-well IVF plate and cultured according to Method 1 or Method 2. Following expansion of inner cell mass after culture for 2-3 weeks on MEFs, cells were disaggregated by TrypLE, and bESC were generated from individual blastocysts by two Methods (Method 1 or Method 2) to maximize efficiency.\nTo determine if feeder-free conditions were suitable for maximizing generation of bESCs from inner cell mass, individual blastocysts were placed into culture plates according to Method 1 or Method 2 with coating conditions modified as shown in Table 1. Coating conditions using MEF feeder cells or vitronectin (feeder-free) were tested. In the first set, 11 bovine embryos were used to establish 4 bESC lines, 3 of which were differentiated and tossed after passage 5-7. Only one cell line remained undifferentiated and maintained expression of bESC pluripotency factors Oct4 and Sox2. […]"}, "[5]": {"conditions": "1 nM inhibitor in Medium 1, vitronectin"}, "[6]": {"conditions": "feeder-free, bESC medium 1 or 2"}}, "data": [{"molecule": "Cn1cc(-c2ccc(-c3cncc(Cl)c3N3CCC4(CCNC4=O)CC3)cc2)cn1", "note": "[CCT251545]", "values": [{"measurement": "bESC growth on vitronectin", "setting": "bESCs [1]; 1 nM inhibitor in Medium 1", "value": "did not support bESC growth"}, {"measurement": "passages after which cells died", "setting": "bESCs [1]; [5]", "value": "2-3 passages"}, {"measurement": "bESC growth on vitronectin", "setting": "bESCs [1]; 5 nM inhibitor in Medium 1", "value": "did not support bESC growth"}, {"measurement": "bESC growth on vitronectin", "setting": "bESCs [1]; 75 nM inhibitor in Medium 1", "value": "did not support bESC growth"}, {"measurement": "bESC growth with typical morphology and expression of Sox2 and Oct4", "setting": "bESCs [1]; 150 nM inhibitor in Medium 1", "value": "supported bESC growth"}, {"measurement": "passages of supported bESC growth", "setting": "bESCs [1]; 150 nM inhibitor in Medium 1", "value": "more than 7 passages"}]}, {"molecule": "C[C@H](NC(=O)Cc1cc(F)cc(F)c1)C(=O)NC(C(=O)OC(C)(C)C)c1ccccc1", "note": "(some centres unmarked) [DAPT]", "values": [{"measurement": "growth of bESCs", "setting": "bESCs [2]; DAPT alone at 5-10 μM in mTeSR medium", "value": "sufficient to support growth of bESCs"}, {"measurement": "passages of supported bESC cultures", "setting": "bESCs [2]; mTeSR with 10 μM DAPT alone", "value": "more than 7 passages"}]}, {"molecule": "O=C(Nc1cccc2cccnc12)c1ccc(N2C(=O)[C@@H]3[C@H](C2=O)[C@@H]2C=C[C@H]3C2)cc1", "note": "[IWR-1]", "values": [{"measurement": "effect on bESCs of addition to DAPT", "setting": "bESCs [2]; IWR-1 added to DAPT in mTeSR medium", "value": "no effect"}]}, {"molecule": "CCc1ccc(-c2nc(CSCC(=O)NCCc3ccccc3)c(C)o2)cc1", "note": "[iCRT3]", "values": [{"measurement": "bESC growth on vitronectin", "setting": "bESCs [1]; 1 nM inhibitor in Medium 1", "value": "did not support bESC growth"}, {"measurement": "passages after which cells died", "setting": "bESCs [1]; [5]", "value": "1-2 passages"}, {"measurement": "bESC growth on vitronectin", "setting": "bESCs [1]; 5 nM inhibitor in Medium 1", "value": "did not support bESC growth"}, {"measurement": "passages after which cells died", "setting": "bESCs [1]; 5 nM inhibitor in Medium 1, vitronectin", "value": "2-4 passages"}, {"measurement": "bESC growth with typical morphology and expression of Sox2 and Oct4", "setting": "bESCs [1]; 10 nM inhibitor in Medium 1", "value": "supported bESC growth"}, {"measurement": "passages of supported bESC growth", "setting": "bESCs [1]; 10 nM inhibitor in Medium 1", "value": "more than 10 passages"}]}, {"molecule": "collagen", "values": [{"measurement": "bESC growth on pre-coated plate (FIG. 2)", "setting": "bESCs [3]", "value": "supports bESC cultures"}, {"measurement": "bESC adherence to matrix", "setting": "bESCs [3]; bESC medium 1", "value": "very lightly and weak"}, {"measurement": "bESC colony formation and growth on matrix", "setting": "bESCs [3]; bESC medium 2", "value": "able to form colonies and grow"}, {"measurement": "bESC morphology on matrix", "setting": "bESCs [3]; [6]", "value": "maintained a typical bESC morphology"}]}, {"molecule": "gelatin", "values": [{"measurement": "bESC growth on pre-coated plate (FIG. 2)", "setting": "bESCs [3]", "value": "do not support the growth of bESCs"}, {"measurement": "bESC attachment to pre-coated plates", "setting": "bESCs [3]; [6]", "value": "attached"}, {"measurement": "bESC growth on pre-coated plates", "setting": "bESCs [3]; [6]", "value": "did not grow"}]}, {"molecule": "B1", "values": [{"measurement": "Number of bESC lines generated", "setting": "[4]", "value": 0}]}]}
